Values joined by “and” are separate entries in the source; they are usually repeats but may differ in a detail not shown here. Equal entries are not always repeated.
What was measured:
primary T cells = type: cell-based
Description: The non-specific cytoxicity of HF in both normal and transformed T-cells at high doses was evaluated. Anti-CD3/anti-CD28 activated primary T cells were harvested 6 days after activation and cultured in the presence of IL-2 with or without HF (100 nM). As a positive control, some T cells were cultured without IL-2 to induce apoptosis (FIG. 3A). Jurkat T cells, a transformed T cell leukemia line, were cultured in complete medium with or without HF (100 nM) as indicated (FIG. 3B). Both primary and Jurkat T cells were cultured for 30 hours and programmed cell death, i.e. apoptosis, was determined by Annexin V staining and propidium iodide (PI) uptake and cells were analyzed by flow cytometry. The percent of apoptotic T cells at each time point was plotted and was defined as Annexin V^+ PI^−. […] In further experiments, titrating amounts of HF were added to primary T cells and apoptosis was determine as above at the indicated time points. At 100 nM HF, but not 30 nM or lower, generalized T-cell apoptosis was observed (FIG. 3C).

RORγt = RORγt expression (real-time PCR) and RORγt retroviral transduction; type: cell-based, mouse; conditions: 10 nM HF
Description: T cells were harvested at the indicated times following activation, RNA was isolated and quantitative real-time PCR was performed using RORγt-specific primers and taqman probe. RORγt expression was normalized to Gapdh levels, and the data are presented as fold changes relative to naïve T cells.
Infected T cells were expanded and restimulated on day 4 for intracellular staining. MIG- and MIG.RORγt-transduced cells were gated based on GFP fluorescence.
FIG. 16C is a graph depicting the percent of Th17 cells (IL-17^+ IFNγ^−) in cultures of MIG-transduced (black bars) or MIG.RORγt-transduced (white bars) T cells as determined by intracellular cytokine staining were normalized to DMSO-treated cultures. The data are presented as mean values±SD on duplicate samples. […]
Quantitative real-time PCR: T cells were activated as described above, collected at the indicated times and pellets were flash-frozen in liquid nitrogen. […] RORγt expression was determined after reverse transcription using the message sensor kit (Ambion, Austin, Tex.) per manufacturers instructions and taqman primers and probe as described elsewhere (I. Ivanov, et al., Cell 126, 1121, 2006). Sybrgreen quantitative real-time PCR was performed on T cell RNA samples following reverse transcription via SuperScript II first-strand cDNA synthesis kit (Invitrogen, Carlsbad, Calif.). […]

CD4+ CD25− T cells = assay: Quantitative real-time PCR of AAR-associated genes in activated T cells; type: cell-based, mouse; conditions: 10 nM HF, within 4 hours of T cell activation
Description: FIG. 12C is a graph depicting the results of quantitative real-time PCR performed on cDNA generated from resting naïve T cells (TN) or T cells activated for 4 hours in the presence of 10 nM MAZ1310 or 10 nM HF. Asns, Gpt2 or eIF4Ebp1 mRNA expression was normalized to Hprt levels and data are presented as mean values±SD in duplicate samples.
Quantitative real-time PCR: T cells were activated as described above, collected at the indicated times and pellets were flash-frozen in liquid nitrogen. Total RNA was obtained by RNeasy (Quiagen, Valencia, Calif.) column purification per manufacturers instructions. RORγt expression was determined after reverse transcription using the message sensor kit (Ambion, Austin, Tex.) per manufacturers instructions and taqman primers and probe as described elsewhere (I. Ivanov, et al., Cell 126, 1121, 2006). Sybrgreen quantitative real-time PCR was performed on T cell RNA samples following reverse transcription via SuperScript II first-strand cDNA synthesis kit (Invitrogen, Carlsbad, Calif.). All PCR data was collected on an iCycler thermal cycler (Biorad, Hercules, Calif.). Primer sequences used for detecting stress response genes are listed below.

dermal fibroblasts = assay: Spreading and contractile activity of dermal fibroblasts on Type I collagen; type: cell-based, human
Description: Inhibitors of cellulite formation are also identified by observing the effect of the test compound on fibroblast behavior. In this assay, a control population of primary dermal fibroblasts are cultured in a matrix of Type I collagen, mimicking the interstitial matrix of the dermis and hypodermis, such that the fibroblasts attach to the substratum and spread, exerting contractile force on the surrounding interstitial matrix. In the test population, primary dermal fibroblasts are incubated on a matrix of Type I collagen in the presence of a test compound for a predetermined length of time, e.g., 24 hrs. The ability of the dermal fibroblasts to attach to the substratum and spread is then observed.
An assay is provided to test the effects of HF and other selective Th17 inhibitors on the behavior of cells likely to provide the basis for the structural features of cellulite—dermal fibroblasts and myofibroblasts. When human primary dermal fibroblasts are cultured in a matrix of Type I collagen, mimicking the interstitial matrix of the dermis and hypodermis, they attach to the substratum and spread, exerting contractile force on the surrounding interstitial matrix. […] The ability of the dermal fibroblasts to attach and spread when cultured in the presence of the Th17 inhibitor is detected.

mTOR = assay: Signaling downstream of mTOR in fibroblasts; type: cell-based
[1] = cited from earlier work
[2] = system: Xenopus feeding stage tadpoles; assay: Toxicity in Xenopus feeding stage tadpoles; conditions: 400 nM HF, treatment for 7 days

With `O=C(CC1NCCCC1O)Cn1cnc2cc(Br)c(Cl)cc2c1=O` (racemic) [HF, 7-bromo-6-chloro-3-[3-(3-hydroxy-2-piperidinyl)-2-oxopropyl]-4(3H)-quinazolinone] the “HF concentration at which generalized T-cell apoptosis was not observed” value (primary T cells) was at most 30 nM, the “HF concentration at which generalized T-cell apoptosis was observed” value (primary T cells) was 100 nM and the “upregulation of RORγt or RORγ during Th17 differentiation” value (RORγt) was “did not interfere”. The “AAR-associated genes (Asns, Gpt2, eIF4Ebp1) mRNA by qPCR” value (CD4+ CD25− T cells) was “induced”, the “spreading and contractile activity of dermal fibroblasts” value (dermal fibroblasts) was “prevents the spreading and contractile activity” and the “signaling downstream of mTOR in fibroblasts” value (mTOR) was “did not inhibit”. The peak plasma concentration ([1]; oral 3.5 mg/day) was 3 ng/ml and ~8 nM, the “dose at which dose limiting toxicity (nausea and vomiting) occurred” value ([1]; oral) was 3.5 mg/day and the “recommended tolerated dose for chronic treatment” value ([1]; oral) was 0.5 mg/day. For the same molecule, the “toxic effects in tadpoles” value [2] was “does not have detectable toxic effects”.

From patent publication US20090123389A1, “Methods for modulating Th17 cell development in the treatment and prevention of cellulite” (priority 2007, published 2009)
